Results taken from ChEMBL document CHEMBL4507276 (2021).

Columns and labels:
[1] = target: T1, Ephrin type-B receptor 4 (Homo sapiens) (UniProt P54760); experiment: EPHB4 Invitrogen selectivity data (BI); details: Compound concentration 3.0 uM
T1 sequence (whole entry): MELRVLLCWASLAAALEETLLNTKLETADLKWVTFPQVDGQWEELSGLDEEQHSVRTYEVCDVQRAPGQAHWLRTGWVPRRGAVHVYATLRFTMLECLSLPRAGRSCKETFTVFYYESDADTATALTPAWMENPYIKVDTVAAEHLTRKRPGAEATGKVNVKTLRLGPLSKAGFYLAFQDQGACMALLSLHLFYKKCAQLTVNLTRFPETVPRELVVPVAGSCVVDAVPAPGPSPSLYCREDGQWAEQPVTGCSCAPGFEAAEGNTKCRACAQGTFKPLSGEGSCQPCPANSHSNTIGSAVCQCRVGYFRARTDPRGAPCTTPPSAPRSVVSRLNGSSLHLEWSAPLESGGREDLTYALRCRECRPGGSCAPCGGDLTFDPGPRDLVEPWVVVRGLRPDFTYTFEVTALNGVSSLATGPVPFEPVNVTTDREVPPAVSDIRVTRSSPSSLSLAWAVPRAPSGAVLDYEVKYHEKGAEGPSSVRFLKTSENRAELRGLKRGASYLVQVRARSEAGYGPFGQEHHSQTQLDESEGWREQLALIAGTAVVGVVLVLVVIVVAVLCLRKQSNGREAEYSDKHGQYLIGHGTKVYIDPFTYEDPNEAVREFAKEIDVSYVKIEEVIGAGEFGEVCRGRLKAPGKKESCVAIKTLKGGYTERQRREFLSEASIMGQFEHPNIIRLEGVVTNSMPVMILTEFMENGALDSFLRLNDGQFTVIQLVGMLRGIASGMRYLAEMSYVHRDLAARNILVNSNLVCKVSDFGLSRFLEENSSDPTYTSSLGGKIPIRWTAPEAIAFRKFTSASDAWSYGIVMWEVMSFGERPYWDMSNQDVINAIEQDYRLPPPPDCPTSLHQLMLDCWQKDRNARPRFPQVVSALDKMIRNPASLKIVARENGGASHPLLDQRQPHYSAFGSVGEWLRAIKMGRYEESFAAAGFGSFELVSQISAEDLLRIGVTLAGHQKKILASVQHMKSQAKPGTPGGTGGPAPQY

[2] = target: Sodium channel regulatory subunit beta-1 (Rattus norvegicus) (UniProt Q00954); experiment: NA+/SITE2/RA Eurofins-Panlabs selectivity data (BI); details: Compound concentration 10.0 uM
[3] = target: Serine/threonine-protein kinase MARK1 (Homo sapiens) (UniProt Q9P0L2); experiment: MARK1 Invitrogen selectivity data (BI); details: Compound concentration 3.0 uM
[4] = target: Glutamate receptor ionotropic, NMDA 2A (Rattus norvegicus) (UniProt Q00959); experiment: NMDA/R Cerep selectivity data (BI); details: Compound concentration 20.0 uM
[5] = target: Rho-associated protein kinase 2 (Homo sapiens) (UniProt O75116); experiment: ROCK2 Invitrogen selectivity data (BI); details: Compound concentration 3.0 uM
[6] = target: Interleukin-1 receptor type 1 (Mus musculus) (UniProt P13504); experiment: IL-1 Eurofins-Panlabs selectivity data (BI); details: Compound concentration 10.0 uM
[7] = target: Serine/threonine-protein kinase N1 (Homo sapiens) (UniProt Q16512); experiment: PKN1 Invitrogen selectivity data (BI); details: Compound concentration 3.0 uM
[8] = target: T2, 5-hydroxytryptamine receptor 3A (Homo sapiens) (UniProt P46098); experiment: 5HT3/HU Eurofins-Panlabs selectivity data (BI); details: Compound concentration 10.0 uM
T2 sequence (whole entry): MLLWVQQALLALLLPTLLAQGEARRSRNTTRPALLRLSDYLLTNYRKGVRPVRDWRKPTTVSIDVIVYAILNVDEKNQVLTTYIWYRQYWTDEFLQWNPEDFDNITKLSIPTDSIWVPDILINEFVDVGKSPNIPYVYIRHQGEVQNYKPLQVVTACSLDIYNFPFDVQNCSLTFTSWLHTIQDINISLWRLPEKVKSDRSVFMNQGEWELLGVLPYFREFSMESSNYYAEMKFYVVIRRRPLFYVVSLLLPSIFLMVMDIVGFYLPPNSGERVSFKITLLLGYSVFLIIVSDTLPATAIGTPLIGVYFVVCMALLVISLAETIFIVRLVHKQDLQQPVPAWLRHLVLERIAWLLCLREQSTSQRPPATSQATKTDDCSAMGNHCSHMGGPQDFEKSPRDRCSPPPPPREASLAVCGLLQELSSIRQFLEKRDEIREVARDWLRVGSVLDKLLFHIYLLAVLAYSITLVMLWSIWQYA

[9] = target: Hepatocyte growth factor receptor (Homo sapiens) (UniProt P08581); experiment: MET Invitrogen selectivity data (BI); details: Compound concentration 3.0 uM
[10] = target: Mitogen-activated protein kinase kinase kinase 10 (Homo sapiens) (UniProt Q02779); experiment: MAP3K10 Invitrogen selectivity data (BI); details: Compound concentration 3.0 uM
[11] = target: D(3) dopamine receptor (Homo sapiens) (UniProt P35462); experiment: D3/HU Eurofins-Panlabs selectivity data (BI); details: Compound concentration 10.0 uM
[12] = target: T3, Muscle, skeletal receptor tyrosine-protein kinase (Homo sapiens) (UniProt O15146); experiment: MUSK Invitrogen selectivity data (BI); details: Compound concentration 3.0 uM
T3 sequence (whole entry): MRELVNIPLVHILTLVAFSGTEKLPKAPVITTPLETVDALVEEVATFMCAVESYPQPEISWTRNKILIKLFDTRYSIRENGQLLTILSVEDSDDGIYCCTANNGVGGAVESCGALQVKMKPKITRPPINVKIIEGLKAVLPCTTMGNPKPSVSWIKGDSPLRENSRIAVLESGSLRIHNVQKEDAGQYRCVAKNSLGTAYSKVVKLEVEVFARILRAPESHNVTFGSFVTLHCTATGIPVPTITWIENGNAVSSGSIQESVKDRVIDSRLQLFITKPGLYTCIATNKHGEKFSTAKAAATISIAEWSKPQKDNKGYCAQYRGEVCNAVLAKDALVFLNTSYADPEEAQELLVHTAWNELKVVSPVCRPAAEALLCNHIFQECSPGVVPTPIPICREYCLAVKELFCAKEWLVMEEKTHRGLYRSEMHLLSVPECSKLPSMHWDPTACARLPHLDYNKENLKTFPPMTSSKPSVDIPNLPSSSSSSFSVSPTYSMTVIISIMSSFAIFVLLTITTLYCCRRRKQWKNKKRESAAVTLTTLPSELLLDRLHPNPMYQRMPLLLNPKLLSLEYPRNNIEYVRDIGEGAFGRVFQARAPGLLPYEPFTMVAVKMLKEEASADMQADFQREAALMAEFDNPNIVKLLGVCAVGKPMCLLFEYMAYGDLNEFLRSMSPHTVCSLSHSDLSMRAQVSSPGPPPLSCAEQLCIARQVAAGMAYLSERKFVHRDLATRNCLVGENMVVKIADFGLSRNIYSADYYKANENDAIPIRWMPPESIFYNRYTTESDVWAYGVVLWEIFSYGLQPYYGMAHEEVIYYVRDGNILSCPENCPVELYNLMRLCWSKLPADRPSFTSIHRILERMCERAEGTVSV

[13] = target: Leucine-rich repeat serine/threonine-protein kinase 2 (Homo sapiens) (UniProt Q5S007); experiment: LRRK2 Invitrogen selectivity data (BI); details: Compound concentration 3.0 uM
[14] = target: Phosphorylase b kinase gamma catalytic chain, liver/testis isoform (Homo sapiens) (UniProt P15735); experiment: PHKG2 Invitrogen selectivity data (BI); details: Compound concentration 3.0 uM

Measured: residual activity

Sequence of Sodium channel regulatory subunit beta-1 (Rattus norvegicus) (Q00954 whole entry): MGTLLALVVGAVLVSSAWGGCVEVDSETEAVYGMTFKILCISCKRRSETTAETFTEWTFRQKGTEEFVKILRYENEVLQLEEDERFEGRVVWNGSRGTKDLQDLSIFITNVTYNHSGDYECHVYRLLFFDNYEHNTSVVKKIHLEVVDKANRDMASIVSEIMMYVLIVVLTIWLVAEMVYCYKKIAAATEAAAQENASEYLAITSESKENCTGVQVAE
Sequence of Phosphorylase b kinase gamma catalytic chain, liver/testis isoform (Homo sapiens) (P15735 whole entry, looked up, canonical isoform): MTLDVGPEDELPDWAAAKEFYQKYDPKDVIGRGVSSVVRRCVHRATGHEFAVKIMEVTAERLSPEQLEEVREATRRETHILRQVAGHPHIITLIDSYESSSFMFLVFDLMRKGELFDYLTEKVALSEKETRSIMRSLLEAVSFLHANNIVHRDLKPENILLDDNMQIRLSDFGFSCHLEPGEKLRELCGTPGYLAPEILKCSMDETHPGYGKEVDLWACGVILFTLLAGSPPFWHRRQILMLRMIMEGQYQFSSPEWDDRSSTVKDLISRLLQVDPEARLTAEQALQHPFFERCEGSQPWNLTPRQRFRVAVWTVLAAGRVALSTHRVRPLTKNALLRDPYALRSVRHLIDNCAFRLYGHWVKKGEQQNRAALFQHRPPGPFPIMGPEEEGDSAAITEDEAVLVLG
Sequence of Leucine-rich repeat serine/threonine-protein kinase 2 (Homo sapiens) (Q5S007 whole entry, canonical isoform): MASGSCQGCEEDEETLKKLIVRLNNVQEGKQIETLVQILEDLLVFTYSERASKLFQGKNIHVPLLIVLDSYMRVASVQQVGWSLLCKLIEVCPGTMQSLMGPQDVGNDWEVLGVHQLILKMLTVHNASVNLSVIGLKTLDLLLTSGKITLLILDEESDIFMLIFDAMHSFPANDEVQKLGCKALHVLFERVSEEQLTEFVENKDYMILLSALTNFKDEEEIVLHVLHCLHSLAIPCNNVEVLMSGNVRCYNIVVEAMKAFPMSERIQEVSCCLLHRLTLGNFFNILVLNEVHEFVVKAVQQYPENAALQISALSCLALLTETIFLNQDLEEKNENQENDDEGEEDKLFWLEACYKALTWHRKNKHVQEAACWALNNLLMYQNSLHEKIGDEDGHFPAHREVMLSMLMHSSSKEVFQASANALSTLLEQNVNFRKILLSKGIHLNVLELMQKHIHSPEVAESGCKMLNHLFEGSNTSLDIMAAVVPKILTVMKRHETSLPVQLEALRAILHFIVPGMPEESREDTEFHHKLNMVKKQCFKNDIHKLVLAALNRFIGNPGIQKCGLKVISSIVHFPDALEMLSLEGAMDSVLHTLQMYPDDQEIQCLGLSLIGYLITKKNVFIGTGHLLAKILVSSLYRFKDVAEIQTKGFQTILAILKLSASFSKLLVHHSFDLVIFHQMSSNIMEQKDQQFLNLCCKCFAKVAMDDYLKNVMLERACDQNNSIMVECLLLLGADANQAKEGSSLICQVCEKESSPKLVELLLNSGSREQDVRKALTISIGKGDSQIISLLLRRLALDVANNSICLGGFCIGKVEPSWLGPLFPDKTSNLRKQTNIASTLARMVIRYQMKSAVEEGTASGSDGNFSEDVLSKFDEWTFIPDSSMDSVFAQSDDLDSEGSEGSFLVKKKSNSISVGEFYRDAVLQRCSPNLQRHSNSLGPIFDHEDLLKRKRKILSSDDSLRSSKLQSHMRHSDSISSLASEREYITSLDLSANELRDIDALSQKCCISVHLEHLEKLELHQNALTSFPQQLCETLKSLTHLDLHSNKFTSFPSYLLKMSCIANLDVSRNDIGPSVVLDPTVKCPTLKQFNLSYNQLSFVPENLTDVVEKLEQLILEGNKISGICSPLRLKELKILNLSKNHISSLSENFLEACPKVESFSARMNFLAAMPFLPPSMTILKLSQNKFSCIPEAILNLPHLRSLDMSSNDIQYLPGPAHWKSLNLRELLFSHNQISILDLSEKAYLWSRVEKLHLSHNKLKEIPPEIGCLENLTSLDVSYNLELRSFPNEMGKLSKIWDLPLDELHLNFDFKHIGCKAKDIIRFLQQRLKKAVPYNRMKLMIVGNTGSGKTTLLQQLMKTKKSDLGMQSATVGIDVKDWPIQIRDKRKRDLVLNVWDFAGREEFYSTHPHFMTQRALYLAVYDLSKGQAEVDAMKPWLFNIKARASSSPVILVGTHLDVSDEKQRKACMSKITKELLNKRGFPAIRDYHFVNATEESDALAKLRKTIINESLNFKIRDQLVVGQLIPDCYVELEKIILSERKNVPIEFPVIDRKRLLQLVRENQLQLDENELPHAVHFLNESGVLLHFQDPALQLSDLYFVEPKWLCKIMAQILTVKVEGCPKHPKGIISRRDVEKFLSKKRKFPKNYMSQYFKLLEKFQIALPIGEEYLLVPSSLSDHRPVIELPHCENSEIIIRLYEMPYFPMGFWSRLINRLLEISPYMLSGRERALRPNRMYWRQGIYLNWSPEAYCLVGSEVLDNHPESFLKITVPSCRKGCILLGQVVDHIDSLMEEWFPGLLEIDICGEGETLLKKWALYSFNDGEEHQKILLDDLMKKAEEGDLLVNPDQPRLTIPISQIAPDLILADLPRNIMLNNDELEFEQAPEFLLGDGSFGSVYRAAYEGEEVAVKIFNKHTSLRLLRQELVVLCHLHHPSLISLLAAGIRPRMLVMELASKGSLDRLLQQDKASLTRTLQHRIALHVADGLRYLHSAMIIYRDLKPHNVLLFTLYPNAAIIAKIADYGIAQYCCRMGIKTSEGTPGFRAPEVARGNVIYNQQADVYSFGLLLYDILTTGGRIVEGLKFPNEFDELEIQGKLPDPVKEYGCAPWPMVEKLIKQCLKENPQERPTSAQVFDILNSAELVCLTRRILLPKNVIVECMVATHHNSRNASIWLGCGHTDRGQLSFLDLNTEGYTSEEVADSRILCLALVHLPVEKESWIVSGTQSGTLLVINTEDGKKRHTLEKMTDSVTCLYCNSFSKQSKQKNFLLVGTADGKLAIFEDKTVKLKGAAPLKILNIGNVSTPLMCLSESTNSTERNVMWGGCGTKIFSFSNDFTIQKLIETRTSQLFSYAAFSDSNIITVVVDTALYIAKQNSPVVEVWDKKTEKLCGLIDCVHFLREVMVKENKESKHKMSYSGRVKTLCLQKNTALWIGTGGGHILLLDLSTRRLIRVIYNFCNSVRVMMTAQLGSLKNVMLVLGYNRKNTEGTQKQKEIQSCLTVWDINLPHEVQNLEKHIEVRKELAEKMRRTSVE
Sequence of D(3) dopamine receptor (Homo sapiens) (P35462 whole entry): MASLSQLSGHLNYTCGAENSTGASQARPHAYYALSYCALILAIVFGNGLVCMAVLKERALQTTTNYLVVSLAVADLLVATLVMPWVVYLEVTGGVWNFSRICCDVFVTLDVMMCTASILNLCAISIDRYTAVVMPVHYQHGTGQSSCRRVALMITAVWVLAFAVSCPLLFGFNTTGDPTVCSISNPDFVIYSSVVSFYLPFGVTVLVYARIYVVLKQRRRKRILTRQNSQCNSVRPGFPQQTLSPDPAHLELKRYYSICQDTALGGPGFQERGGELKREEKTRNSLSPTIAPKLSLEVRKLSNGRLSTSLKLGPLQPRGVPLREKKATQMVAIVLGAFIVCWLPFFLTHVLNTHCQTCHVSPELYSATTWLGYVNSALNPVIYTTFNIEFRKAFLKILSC
Sequence of Rho-associated protein kinase 2 (Homo sapiens) (O75116 whole entry, looked up): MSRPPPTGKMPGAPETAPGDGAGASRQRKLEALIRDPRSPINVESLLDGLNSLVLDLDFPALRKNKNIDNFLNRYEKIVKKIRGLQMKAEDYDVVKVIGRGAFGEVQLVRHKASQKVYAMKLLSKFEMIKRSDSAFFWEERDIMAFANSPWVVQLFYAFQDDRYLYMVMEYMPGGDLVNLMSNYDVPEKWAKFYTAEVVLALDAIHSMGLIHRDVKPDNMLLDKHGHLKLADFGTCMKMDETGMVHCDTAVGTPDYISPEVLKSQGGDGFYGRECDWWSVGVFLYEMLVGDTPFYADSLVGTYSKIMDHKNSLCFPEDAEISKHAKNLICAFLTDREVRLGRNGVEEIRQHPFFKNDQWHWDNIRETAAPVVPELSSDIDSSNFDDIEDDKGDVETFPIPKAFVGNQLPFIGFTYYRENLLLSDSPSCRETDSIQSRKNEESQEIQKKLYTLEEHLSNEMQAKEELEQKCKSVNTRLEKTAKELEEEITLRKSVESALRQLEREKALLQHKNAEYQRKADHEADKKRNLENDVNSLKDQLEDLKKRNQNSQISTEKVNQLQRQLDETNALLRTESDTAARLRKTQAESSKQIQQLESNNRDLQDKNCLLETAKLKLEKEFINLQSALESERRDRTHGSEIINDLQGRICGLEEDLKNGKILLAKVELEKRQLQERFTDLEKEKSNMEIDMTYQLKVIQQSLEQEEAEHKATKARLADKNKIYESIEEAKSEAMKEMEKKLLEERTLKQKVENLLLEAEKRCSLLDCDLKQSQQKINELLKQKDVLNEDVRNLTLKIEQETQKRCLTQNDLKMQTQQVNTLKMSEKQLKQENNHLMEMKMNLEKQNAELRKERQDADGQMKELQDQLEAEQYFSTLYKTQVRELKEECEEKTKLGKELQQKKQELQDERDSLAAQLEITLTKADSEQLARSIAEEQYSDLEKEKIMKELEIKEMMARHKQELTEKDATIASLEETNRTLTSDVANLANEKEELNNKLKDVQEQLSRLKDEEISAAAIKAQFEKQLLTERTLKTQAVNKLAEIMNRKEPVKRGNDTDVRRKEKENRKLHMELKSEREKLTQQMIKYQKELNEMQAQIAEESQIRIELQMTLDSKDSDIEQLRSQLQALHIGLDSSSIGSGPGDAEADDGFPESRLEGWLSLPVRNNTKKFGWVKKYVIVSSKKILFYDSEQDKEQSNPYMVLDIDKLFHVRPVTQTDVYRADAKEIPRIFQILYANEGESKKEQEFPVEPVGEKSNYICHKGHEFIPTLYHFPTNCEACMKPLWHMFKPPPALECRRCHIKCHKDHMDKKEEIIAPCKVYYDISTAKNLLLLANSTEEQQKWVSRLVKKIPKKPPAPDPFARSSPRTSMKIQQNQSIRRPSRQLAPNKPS

CN(C)C(=O)Cn1cc(-c2nc([C@@](C)(c3ccc(-c4cnc(N)nc4)cc3)C3CC3)no2)cn1 [BI 665915]
inactive: [1] 101% | [2] 84% | [3] 98% | [4] 90% | [5] 102% | [6] 99% | [7] 98.5% | [8] 102% | [9] 97% | [10] 88% | [11] 97% | [12] 97.5% | [13] 96% | [14] 97.5%
